The text below walks through data of ChEMBL document CHEMBL3588842, “Discovery of Selective Small-Molecule Inhibitors for the β-Catenin/T-Cell Factor Protein-Protein Interaction through the Optimization of the Acyl Hydrazone Moiety” (J Med Chem, 2015).

The source made the active and inactive calls. The calls are words filed in the database; no cut-off is given here.

The test system of assay [1] is SW480. The assay is described as follows: Effect on HPRT mRNA expression in human SW480 cells after 24 hrs by quantitative real-time PCR analysis. The format is functional, cell-based. A general note: Real-time PCR tracks product formation cycle by cycle.
Assay [2] relates to SW480. The assay is described as follows: Decrease in cyclin D1 mRNA expression in human SW480 cells at 2 uM after 24 hrs by quantitative real-time PCR analysis. Particulars: SW480, 24 h. The class given is functional.
Assay [3] concerns SW480. Kind of assay: Effect on beta-catenin degradation in human SW480 cells assessed as beta-catenin protein expression after 24 hrs by western blot analysis. The format is functional, cell-based. (In general: Immunoblotting shows a protein as a band on a membrane.)
Assay [4] deals with SW480. The assay is described as follows: Decrease in c-myc mRNA expression in human SW480 cells at 2 uM after 24 hrs by quantitative real-time PCR analysis. The format is functional. Conditions: SW480, 24 h.
Assay [5] has as its system SW480. The assay is described as follows: Decrease in AXIN2 mRNA expression in human SW480 cells at 2 uM after 24 hrs by quantitative real-time PCR analysis. The class given is functional. Conditions: SW480, 24 h.
For assay [6], the target named is T1, Catenin beta-1 (Homo sapiens, UniProt P35222).
T1 sequence (P35222 whole entry): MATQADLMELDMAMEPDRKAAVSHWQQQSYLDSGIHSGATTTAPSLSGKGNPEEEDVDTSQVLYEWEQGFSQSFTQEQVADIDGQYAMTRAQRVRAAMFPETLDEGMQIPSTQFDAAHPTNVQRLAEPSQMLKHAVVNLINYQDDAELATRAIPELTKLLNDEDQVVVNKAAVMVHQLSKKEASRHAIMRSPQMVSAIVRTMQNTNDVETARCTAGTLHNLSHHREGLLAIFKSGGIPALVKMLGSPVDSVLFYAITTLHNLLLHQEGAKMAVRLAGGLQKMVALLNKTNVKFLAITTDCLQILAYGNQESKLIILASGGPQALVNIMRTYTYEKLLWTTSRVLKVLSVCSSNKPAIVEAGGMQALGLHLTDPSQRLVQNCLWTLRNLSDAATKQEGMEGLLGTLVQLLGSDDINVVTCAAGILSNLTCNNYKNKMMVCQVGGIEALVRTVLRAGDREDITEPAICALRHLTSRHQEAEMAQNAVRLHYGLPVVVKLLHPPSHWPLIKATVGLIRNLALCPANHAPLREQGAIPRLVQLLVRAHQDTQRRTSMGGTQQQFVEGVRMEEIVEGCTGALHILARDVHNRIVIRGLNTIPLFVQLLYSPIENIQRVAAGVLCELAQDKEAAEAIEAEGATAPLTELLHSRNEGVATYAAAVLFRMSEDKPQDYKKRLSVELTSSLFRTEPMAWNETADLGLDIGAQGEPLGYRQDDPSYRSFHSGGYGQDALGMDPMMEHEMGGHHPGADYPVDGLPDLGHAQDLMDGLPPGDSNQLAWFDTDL
The assay is described as follows: Inhibition of human wild-type beta-catenin (residues 138-686)/C-terminally fluorescein-labeled human E-cadherin (residues 819-873) interaction by FP competitive inhibition assay.

The target of assay [7] is T1, Catenin beta-1. The assay is described as follows: Inhibition of human wild-type beta-catenin (residues 138-686)/C-terminally fluorescein labeled human wild-type Tcf4 (residues 7-51) interaction after […] by FP competitive inhibition assay.
Assay [8] addresses T1, Catenin beta-1. Kind of assay: Inhibition of human wild-type beta-catenin (residues 138-686)/C-terminally fluorescein-labeled human APC-R3 (residues 1477-1519) interaction by FP competitive inhibition assay.
Another assay has as its system HT-29. Kind of assay: cells. Particulars: Homo sapiens, HT-29, 72 h.
Assay [9] can be described thus: Inhibition of beta-catenin/Tcf4 interaction in human SW480 cells assessed as decrease in transactivation of canonical Wnt signaling by TOPflash luciferase reporter assay. Background: Reporter assays use an easily measured gene product as a stand-in for the process of interest.
Assay [10] concerns HCT-116. The assay is described as follows: cells. Particulars: Homo sapiens, HCT-116, 72 h.
The subject of assay [11] is SW480. The assay is described as follows: cells. Particulars: Homo sapiens, SW480, 72 h.
Assay [12] can be described thus: Inhibition of interaction of beta-catenin (unknown origin) transfected in Wnt-activated HEK293 cells/Tcf4 assessed as decrease in transactivation of canonical Wnt signaling by TOPflash luciferase reporter assay. Conditions: Homo sapiens.
The next assay has as its system HEK293. Kind of assay: Inhibition of interaction of beta-catenin (unknown origin) transfected in Wnt-activated HEK293 cells/Tcf4 assessed as decrease in transactivation of canonical Wnt signaling by TOPflash luciferase reporter assay. Conditions: Homo sapiens.
The test system of assay [13] is SW480. Kind of assay: Cytotoxicity against human SW480 cells assessed as inhibition of cell growth after 72 hrs by MTS assay.
Assay [14] relates to HCT-116. The assay is described as follows: Cytotoxicity against human HCT116 cells assessed as inhibition of cell growth after 72 hrs by MTS assay.
Assay [15] concerns beta-catenin R469A mutant/Tcf4 (human). The assay is described as follows: Inhibition of human beta-catenin R469A mutant interaction with Tcf4 by fluorescence polarization competitive inhibition assay.

As usually defined, the inhibition is the relative decrease from the control value, in per cent. On to `Nc1nonc1C(=O)N/N=C1/c2ccccc2-c2nc3nonc3nc21`, for which the outcome in the assay with SW480 [1] and in the assay on SW480 [3] was inactive. In addition, the inhibition at 2 µM with SW480 [2], in the assay with SW480 [4] and in the assay on SW480 [5] was above 50% each time.
One may read the IC50 as the midpoint of a concentration-inhibition curve. On to `COc1c(C[C@@H](C)OC(=O)Oc2ccc(O)cc2)c2c3c(C[C@@H](C)OC(=O)c4ccccc4)c(OC)c(=O)c4c(O)cc(OC)c(c5c(OC)cc(O)c(c1=O)c52)c43` [CALPHOSTIN C], for which the values for the IC50 at Catenin beta-1 [6], on Catenin beta-1 [7] and on Catenin beta-1 [8] were 38 µM, 77 µM and 110 µM, respectively.
On to `COc1ccc(/C=C2/SC(=S)N(CCCC(=O)O)C2=O)cc1OC`, for which the IC50 with HT-29 came out at 290 µM; in assay [9], 4 µM; in the assay on HCT-116 [10], 180 µM; in the assay with SW480 [11] it was 240 µM.
On to `N#CCCn1c2ccccc2c2nc3nonc3nc21`, for which the IC50 was found to be 0.02 µM with HCT-116 [10] and 52 µM with SW480 [11].
For the compound `O=C(O)c1cc2nc(-c3ccc4c(c3)OCO4)c(-c3ccc4c(c3)OCO4)nc2cc1O`, the IC50 in assay [12] was above 100 µM.
As for `O=C(O)c1ccc2nc(-c3ccc(Cl)cc3)c(-c3ccc(Cl)cc3)nc2c1`, the IC50 in the assay on HT-29 was 41 µM; in the assay on HCT-116 [10] it was 22 µM; in assay [12], above 100 µM; with SW480 [11], 38 µM.
`O=C(O)CCCn1c2ccccc2c2nc3nonc3nc21`: the inhibition result in the assay on HEK293, with SW480 [13] and in the assay with HCT-116 [14] was “inactive” in each case.
The Ki is the dissociation constant of the complex between target and ligand, obtained from inhibition or displacement. Lower therefore signals tighter binding. Turning to `Nc1nonc1NC(=O)Cn1c2ccccc2c2nc3nonc3nc21`, the inhibition result in the assay on HEK293, with SW480 [13] and with HCT-116 [14] was “inactive” in each case. Further, the Ki in assay [15] is 42 µM.
Consider `CCOC(=O)CCCn1c2ccccc2c2nc3nonc3nc21`, for which the inhibition result with HEK293, in the assay with SW480 [13] and with HCT-116 [14] was “inactive” throughout.
Take `COc1c(C[C@H](C)O)c2c3c(C[C@H](C)O)c(OC)c(=O)c4c(O)cc5c(c6c(cc(O)c(c1=O)c62)OCO5)c43`: the IC50 is 1.8 µM with HT-29, 1.2 µM with HCT-116 [10] and 5.5 µM in the assay with SW480 [11].
For `COC(=O)CCn1c2ccccc2c2nc3nonc3nc21`, the inhibition entry with HEK293, with SW480 [13] and with HCT-116 [14] was “inactive” throughout.
For the compound `c1ccc2c(c1)c1nc3nonc3nc1n2CCc1nn[nH]n1`, in the assay on SW480 [1], the outcome was inactive. Moreover, the IC50 was 31 µM in the assay with HCT-116 [10], 26 µM in [12] and above 200 µM in the assay with SW480 [11].
Turning to `O=C(O)c1cc(-c2ccc(Oc3ccc(Cl)cc3)cc2)on1`, in [12], the IC50 was 39 µM.
